The NIST ThermoML archive (doi:10.1016/j.fluid.2010.02.043)
Numbers after ± are expanded uncertainties.

Conditions: Liquid, Ebulliometric method (Recirculating still)

Row | SMILES | vapor or sublimation pressure (332.19 K) [kPa] | vapor or sublimation pressure (346.26 K) [kPa] | vapor or sublimation pressure (354.42 K) [kPa] | vapor or sublimation pressure (362.18 K) [kPa] | vapor or sublimation pressure (366.46 K) [kPa] | vapor or sublimation pressure (371.63 K) [kPa] | vapor or sublimation pressure (375.04 K) [kPa] | vapor or sublimation pressure (378.75 K) [kPa] | vapor or sublimation pressure (382.02 K) [kPa] | vapor or sublimation pressure (366.97 K) [kPa] | vapor or sublimation pressure (378.82 K) [kPa] | vapor or sublimation pressure (387.59 K) [kPa] | vapor or sublimation pressure (397.84 K) [kPa] | vapor or sublimation pressure (403.31 K) [kPa] | vapor or sublimation pressure (408.91 K) [kPa] | vapor or sublimation pressure (413.59 K) [kPa] | vapor or sublimation pressure (418.73 K) [kPa] | vapor or sublimation pressure (422.25 K) [kPa] | vapor or sublimation pressure (426.39 K) [kPa]
1 | CSSC [2,3-dithiabutane] | 18.2 ± 0.4 | 31.1 ± 0.4 | 41.7 ± 0.4 | 53.9 ± 0.4 | 61.9 ± 0.4 | 72.9 ± 0.4 | 81.1 ± 0.4 | 90.9 ± 0.4 | 100.6 ± 0.5 | – | – | – | – | – | – | – | – | – | –
2 | CCSSCC [3,4-dithiahexane] | – | – | – | – | – | – | – | – | – | 15.8 ± 0.4 | 24.1 ± 0.4 | 32.3 ± 0.4 | 44.4 ± 0.4 | 52.8 ± 0.4 | 62.2 ± 0.4 | 71.1 ± 0.4 | 82.1 ± 0.4 | 90.5 ± 0.4 | 100.7 ± 0.4
